Experimental data: patent US8536160B2, “Azaheterocyclyl derivatives of androstanes and androstenes as medicaments for cardiovascular disorders” (priority 2006, dated 2013)
Structures can show the parent of a compound that is named as a salt. Where two headings read alike, the source gives them in different places.

Experiments:
[1] = target: Dog Kidney Na+, K+-ATPase (Canis lupus familiaris, UniProt P50997); assay: Inhibition of the enzymatic activity of purified Na+,K+-ATPase (hydrolysis of 32P-ATP); type: biochemical
anesthetized guinea-pig = assay: Inotropic effect and lethal dose, slow intravenous infusion in anesthetized guinea-pig; type: in vivo; parameters: Maximum dose infused: unit not given here; conditions: for Emax / ED80 / ED (max): Cavia porcellus, iv, 1.5 h; for Emax: read-out: Emax % increase in +dP/dTmax; for ED80: read-out: ED80 (inotropic potency, dose increasing +dP/dTmax by 80%); for ED (max): read-out: EDmax (dose inducing maximum positive inotropic effect); for % decrease from Emax after 20 min from the end of the infusion: duration of the inotropic effect; for Maximum dose infused: maximum dose infused in the survived animals
[2] = slow i.v. infusion over 90 minutes, anesthetized guinea-pig, maximum increase in contractile force
[3] = slow i.v. infusion over 90 minutes, anesthetized guinea-pig
[4] = slow i.v. infusion over 90 minutes
[5] = read-out: Na+, K+-ATPase Inhibition IC50
[6] = dog kidney enzyme, hydrolysis of 32P-ATP in presence and absence of compound, read-out: Na+, K+-ATPase Inhibition IC50

Row | Compound | IC50 ([1]; Na+, K+-ATPase Inhibition IC50) [nM] | IC50 [1, 6] [nM] | further results
1 | CC12CCC3C(CC(=C(F)F)C4CC(=NOC5CCNC5)CCC43C)C1CCC2=O (mixture of isomers) [I-az, (E,Z) 3-[3-(R)-Pyrrolidinyl]oxyimino-6-difluoromethyleneandrostan-17-one hydrochloride] | 21 |  | Emax (anesthetized guinea-pig; [2]): 244%; ED80 (anesthetized guinea-pig; [3]): 6.69 µmol/kg; ED (max) (anesthetized guinea-pig; [3]): 18.4 µmol/kg; % decrease from Emax after 20 min from the end of the infusion (anesthetized guinea-pig; anesthetized guinea-pig): 20%; Dead/treated (anesthetized guinea-pig; [3]): 0/3; Maximum dose infused (anesthetized guinea-pig; [4]): 25.2
2 | C[C@]12CCC(=NO[C@@H]3CCNC3)C[C@@H]1[C@@H](C(N)=O)C[C@@H]1[C@@H]2CC[C@]2(C)C(=O)CC[C@@H]12.Cl [I-at, (Z,E) 3-(3-(R)-Pyrrolidinyloxyimino)-6α-carbamoylandrostane-17-one hydrochloride] |  |  | IC50 [1, 5]: 140 nM; % decrease from Emax after 20 min from the end of the infusion (anesthetized guinea-pig; anesthetized guinea-pig): 16%; Dead/treated (anesthetized guinea-pig; [3]): 0/4; ED80 (inotropic potency, dose increasing +dP/dTmax by 80%) (anesthetized guinea-pig; [3]): 2.21 µmol/kg; EDmax (dose inducing maximum positive inotropic effect) (anesthetized guinea-pig; [3]): 8.82 µmol/kg; Emax % increase in +dP/dTmax (anesthetized guinea-pig; [2]): 109%; Maximum dose infused (anesthetized guinea-pig; [4]): 25.0
3 | COC(=O)C1CC2C3CCC(=O)C3(C)CCC2C2(C)CCC(=NOC3CCNC3)CC12 (mixture of isomers) [I-au, (Z,E) 3-(3-(R)-Pyrrolidinyloxyimino)-6α-methoxycarbonylandrostane-17-one hydrochloride] |  | 160 | Emax (anesthetized guinea-pig; [2]): 164%; ED80 (anesthetized guinea-pig; [3]): 11 µmol/kg; ED (max) (anesthetized guinea-pig; [3]): 23.3 µmol/kg; % decrease from Emax after 20 min from the end of the infusion (anesthetized guinea-pig; anesthetized guinea-pig): 58%; Dead/treated (anesthetized guinea-pig; [3]): 0/4; Maximum dose infused (anesthetized guinea-pig; [4]): 50.3
4 | CC12CCC3C(C(CO)CC4CC(=NOC5CCNC5)CCC43C)C1CCC2=O (mixture of isomers) [I-ci, (E,Z) 3-[3′-(R)-Pyrrolidinyl]oxyimino-7β-hydroxymethylandrostane-17-one hydrochloride] |  | 330 | 
5 | C=C1CC2C3CCC(=O)C3(C)CCC2C2(C)CCC(=NOC3CCNC3)CC12O (racemic) [I-bk, (E,Z) 3-[3′-(S)-Pyrrolidinyl]oxyimino-5α-hydroxy-6-methylene-androstane-17-one fumarate] | 480 |  | 
6 | CON=C1CC2C3CCC(=O)C3(C)CCC2C2(C)CCC(=NOC3CCN(C)C3)CC12O (single isomer, unassigned) [I-ca] |  | 6000 | 
7 | CN1CC[C@H](O/N=C2\CC[C@@]3(C)C(C2)[C@@H](CO)C(=O)[C@@H]2[C@@H]3CC[C@]3(C)C(=O)CC[C@@H]23)C1 (stereo partly drawn) [I-cu, (E,Z) 3-[3′-(S)-(1-Methyl)-pyrrolidinyl]oxyimino-6α-hydroxymethylandrostane-7,17-dione fumarate] |  |  | IC50 [1, 5]: 2600 nM
8 | CC12CCC3C(CC(O[N+](=O)[O-])C4CC(=NOC5CCNC5)CCC43C)C1CCC2=O (mixture of isomers) [I-ap, (E,Z) 3-[3-(R)-Pyrrolidinyl]oxyimino-17-oxoandrostane-6α-yl nitrate hydrochloride] |  | 380 | 
9 | CON=C1CC2C3CCC(=O)C3(C)CCC2C2(C)CCC(=NOC3CCN(C)C3)CC12 (mixture of isomers) [I-bg, (E,Z) 3-[3′-(R)-(1-Methyl)pyrrolidinyl]oxyimino-(E)-6-methoxyiminoandrostane-17-one hydrochloride] |  | 5700 | 
10 | CC12CCC3C(CC4(CC4)C4CC(=NOC5CCNC5)CCC34C)C1CCC2=O (mixture of isomers) [I-ba, (Z,E) 3-(3-(R)-Pyrrolidinyloxyimino)-6-(spirocyclopropane)androstane-17-one hydrochloride] |  | 220 | 
11 | 3α-[2-(Pyrrolidin-3-(R)-yl)-(Z)-vinyl]androstane-6,7-dione formate [I-df] |  |  | IC50 [1, 5]: 360 nM
12 | CC12CCC3C(C(NC=O)CC4CC(=NOC5CCNC5)CCC43C)C1CCC2=O (mixture of isomers) [I-cp, (E,Z) 3-[3′-(R)-Pyrrolidinyl]oxyimino-7α-formamidoandrostane-17-one hydrochloride] |  | 4600 | 
13 | C=C1C[C@H]2[C@@H]3CCC(=O)[C@@]3(C)CC[C@@H]2[C@@]2(C)CC/C(=N\O[C@@H]3CCN(C)C3)C[C@]12O [I-bm, (E) 3-[3′-(R)-(1-Methyl)-pyrrolidinyl]oxyimino-5α-hydroxy-6-methyleneandrostane-17-one fumarate] |  |  | IC50 [1, 5]: 1400 nM
14 | C[C@]12CC[C@@H](/C=C\[C@@H]3CCNC3)CC1C(=O)C[C@@H]1[C@@H]2CC[C@]2(C)C(=O)CC[C@@H]12 (stereo partly drawn) [I-de, 3α-[2-(Pyrrolidin-3-(S)-yl)-(Z)-vinyl]androstane-6,17-dione formate] | 390 |  | 
15 | CN1CCC(ON=C2CCC3(C)C(C2)C(=O)CC2C4CCC(=O)C4(C)CCC23)C1 (single isomer, unassigned) [I-al] | 1300 |  | 
16 | 3β-(2-(R,S)-piperazinylcarbonyloxy)androstane-6,7-dione dihydrochloride [I-da] |  |  | IC50 [1, 5]: 68000 nM
17 | COC(=O)[C@@H]1CC2C/C(=N/O[C@@H]3CCNC3)CC[C@]2(C)[C@H]2CC[C@]3(C)C(=O)CC[C@H]3[C@H]12 (stereo partly drawn) [I-cq, (E) 3-[3′-(R)-Pyrrolidinyl]oxyimino-7α-methoxycarbonylandrostane-17-one hydrochloride] |  |  | IC50 [1, 5]: 960 nM
18 | CON=C1CC2CC(=NOC3CCNC3)CCC2(C)C2CCC3(C)C(=O)CCC3C12 (mixture of isomers) [I-ce, (E,Z) 3-[3-(R)-Pyrrolidinyl]oxyimino-7(E)-methoxyiminoandrostan-17-one fumarate] |  | 3000 | 

Row | Compound | IC50 ([1]; Na+, K+-ATPase Inhibition IC50) [nM] | IC50 [1, 6] [nM] | further results
19 | C[C@H]1C[C@@H]2[C@H](CC[C@]3(C)C(=O)CC[C@@H]23)[C@@]2(C)CC/C(=N/O[C@@H]3CCNC3)CC12 (stereo partly drawn) [I-ax, (Z) 3-[3-(R)-Pyrrolidinyl]oxyimino-6α-methylandrostane-17-one hydrochloride] | 260 |  | 
20 | C=C1C[C@H]2[C@@H]3CCC(=O)[C@@]3(C)CC[C@@H]2[C@@]2(C)CC/C(=N/O[C@H]3CCN(C)C3)C[C@]12O [I-bn, (Z) 3-[3′-(S)-(1-Methyl)pyrrolidinyl]oxyimino)-5α-hydroxy-6-methyleneandrostane-17-one fumarate] | 95000 |  | 
21 | C=C1C[C@H]2[C@@H]3CCC(=O)[C@@]3(C)CC[C@@H]2[C@@]2(C)CC/C(=N/O[C@@H]3CCN(C)C3)C[C@]12O [I-bl, (Z) 3-[3′-(R)-(1-Methyl)pyrrolidinyl]oxyimino-5α-hydroxy-6-methyleneandrostane-17-one fumarate] | 92000 |  | 
22 | CC12CCC3C(CC(=O)C4CC(C=CC5CCNCC5)CCC43C)C1CCC2=O (stereo not drawn) [I-dg, 3α-[2-(Pyperidin-4-yl)-(Z)-vinyl]androstane-6,17-dione formate] |  | 890 | 
23 | C[C@]12CC/C(=N\OC3CCNC3)CC1C(=O)C[C@@H]1[C@@H]2CC[C@]2(C)C(=O)CC[C@@H]12 (mixture of isomers) [I-ac, (E) 3-[3-(RS)-Pyrrolidinyl]oxyiminoandrostane-6,17-dione hydrochloride] | 110 |  | 
24 | CC12CCC3C(CC(NC=O)C4CC(=NOC5CCNC5)CCC43C)C1CCC2=O (mixture of isomers) [I-ay, (E,Z) 3-[3-(R)-Pyrrolidinyl]oxyimino-6α-formamidoandrostane-17-one hydrochloride] |  | 41 | 
25 | 3α-[2-(Azetidin-3-yl)-(Z)-vinyl]androstane-6,7-dione formate [I-dh] |  |  | IC50 [1, 5]: 830 nM
26 | CON=C1CC2C3CCC(=O)C3(C)CCC2C2(C)CCC(=NOC3CCN(C)C3)CC12 (mixture of isomers) [I-bf, (E,Z) 3-[3′-(S)-(1-Methyl)pyrrolidinyl]oxyimino-6-(E)-methoxyimino-androstane-17-one hydrochloride] |  | 7600 | 
27 | CON=C1CC2C3CCC(=O)C3(C)CCC2C2(C)CCC(=NOC3CCNC3)CC12O (single isomer, unassigned) [I-bv] |  | 150 | 
28 | C=C1CC2C3CCC(=O)C3(C)CCC2C2(C)CCC(=NOC3CCNC3)CC12 (mixture of isomers) [I-aq, (E,Z) 3-[3-(R)-Pyrrolidinyl]oxyimino-6-methyleneandrostane-17-one hydrochloride] | 46 |  | 
29 | CC12CCC3C(CC(O)C4CC(=NOC5CCNC5)CCC43C)C1CCC2O (mixture of isomers) [I-do, (E,Z) 3-[3-(R)-Pyrrolidinyl]oxyiminoandrostane-6α,17β-diol hydrochloride] | 490 |  | 
30 | C[C@]12CC[C@H](OC(=O)C3CNC3)CC1C(=O)C[C@@H]1[C@@H]2CC[C@]2(C)C(=O)CC[C@@H]12 (stereo partly drawn) [I-cx, 3β-(3-Azetidincarbonyloxy)androstane-6,17-dione hydrochloride] | 4200 |  | 
31 | CN1CCC(ON=C2CCC3(C)C(C2)C(CO)C(=O)C2C4CCC(=O)C4(C)CCC23)C1 (mixture of isomers) [I-ct, (E,Z) 3-[3′-(R)-(1-Methyl)pyrrolidinyl]oxyimino-6α-hydroxymethylandrostane-7,17-dione fumarate] |  | 270 | 
32 | CC12CCC3C(CC(=O)C4CC(=NOC5CCNC5)CCC43C)C1CCC2=O (single isomer, unassigned) [I-ad, hydrochloride] | 830 |  | 
33 | C[C@]12CC[C@@H](SC3CCNC3)CC1C(=O)C[C@@H]1[C@@H]2CC[C@]2(C)C(=O)CC[C@@H]12 (mixture of isomers) [I-dc, 3α-[3-(RS)-Pyrrolidinylthio]androstane-6,17-dione fumarate] |  |  | IC50 [1, 5]: 95000 nM
34 | CON=C1CC2C3CCC(=O)C3(C)CCC2C2(C)CCC(=NOC3CCNC3)CC12 (single isomer, unassigned) [I-bd, hydrochloride] | 18 |  | 
35 | C=C1C[C@H]2[C@@H]3CCC(=O)[C@@]3(C)CC[C@@H]2[C@@]2(C)CC/C(=N\O[C@H]3CCN(C)C3)C[C@]12O [I-bo, (E) 3-[3′-(S)-(1-Methyl)pyrrolidinyl]oxyimino)-5α-hydroxy-6-methyleneandrostane-17-one fumarate] | 21000 |  | 
